Measured values reported in ChEMBL document CHEMBL1201862, “PubChem BioAssay data set” (2004).
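Test compounds were applied to cells in 96-well plates for 48 hours at 5 doses. GI50 = concentration required for 50% inhibition of growth.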 The source made the active and inactive calls. Cut-off read from the data, not from the text of the source: active = GI50 up to about 1.1 µM and inactive = higher.

Key:
Experiment in all cases: NCI anticancer screen, dose series, 48 h
[1] = system: DMS-114
[2] = system: OVCAR-5
[3] = system: KM12
[4] = system: UO-31
[5] = system: SK-MEL-5
[6] = system: SK-MEL-2
[7] = system: SNB-78
[8] = system: HCT-116
[9] = system: NCI/ADR-RES
[10] = system: OVCAR-3
[11] = system: HT-29
[12] = system: SNB-19
[13] = system: U-251
[14] = system: DMS-273
[15] = system: COLO 205
[16] = system: T47D
[17] = system: HOP-62
[18] = system: HCT-15
[19] = system: DU-145
[20] = system: SF-295
[21] = system: TK-10
[22] = system: A549
[23] = system: DLD-1
[24] = system: MDA-N
[25] = system: EKVX
[26] = system: SF-539
[27] = system: IGROV-1
[28] = system: MOLT-4
[29] = system: RXF 393
[30] = system: MDA-MB-231
[31] = system: A498
[32] = system: NCI-H522
[33] = system: NCI-H23
[34] = system: HOP-18
[35] = system: SN12C
[36] = system: KM-20L2
[37] = system: UACC-62
[38] = system: HOP-92
[39] = system: Malme-3M
[40] = system: NCI-H226
[41] = system: CAKI-1
[42] = system: MCF7
[43] = system: MDA-MB-435
[44] = system: M19-MEL
[45] = system: SF-268
[46] = system: HCC 2998
[47] = system: OVCAR-4
[48] = system: SK-MEL-28
[49] = system: LOX IMVI
[50] = system: HL-60
[51] = system: UACC-257
[52] = system: PC-3
[53] = system: LXFL 529
[54] = system: OVCAR-8
[55] = system: SK-OV-3
[56] = system: CCRF-CEM
[57] = system: SW-620
[58] = system: RPMI-8226
[59] = system: SR
[60] = system: 786-0
[61] = system: M14
[62] = system: ACHN
[63] = system: NCI-H460
[64] = system: K562
[65] = system: Hs-578T
[66] = system: SNB-75
[67] = system: XF498

SMILES: O=C(CCC1CCCCN1)Nc1ccc2c(c1)C(=O)c1ccc(NC(=O)CCN3CCCCC3)cc1C2=O (stereo not drawn)
- GI50 [1]: 1.59 µM (inactive)
- GI50 [2]: 2.34 µM (inactive)
- GI50 [3]: 2.33 µM (inactive)
- GI50 [4]: 1.21 µM (inactive)
- GI50 [5]: 1.4 µM (inactive)
- GI50 [6]: 1.37 µM (inactive)
- GI50 [7]: 4.56 µM (inactive)
- GI50 [8]: 2.03 µM (inactive)
- GI50 [9]: > 10 µM (inactive)
- GI50 [10]: 2.37 µM (inactive)
- GI50 [11]: 2.52 µM (inactive)
- GI50 [12]: 7.19 µM (inactive)
- GI50 [13]: 8.13 µM (inactive)
- GI50 [14]: 2.54 µM (inactive)
- GI50 [15]: 1.35 µM (inactive)
- GI50 [16]: > 10 µM (inactive)
- GI50 [17]: 9.29 µM (inactive)
- GI50 [18]: 1.58 µM
- GI50 [19]: > 10 µM (inactive)
- GI50 [20]: 3.56 µM (inactive)
- GI50 [21]: 1.22 µM (inactive)
- GI50 [22]: 5.19 µM (inactive)
- GI50 [23]: 1.61 µM (inactive)
- GI50 [24]: > 10 µM (inactive)
- GI50 [25]: > 10 µM (inactive)
- GI50 [26]: 2.97 µM (inactive)
- GI50 [27]: 6.82 µM (inactive)
- GI50 [28]: 1.95 µM (inactive)
- GI50 [29]: 0.776 µM (active)
- GI50 [30]: > 10 µM (inactive)
- GI50 [31]: 4.14 µM (inactive)
- GI50 [32]: 1.38 µM (inactive)
- GI50 [33]: 2.21 µM (inactive)
- GI50 [34]: 2.79 µM (inactive)
- GI50 [35]: 1.91 µM (inactive)
- GI50 [36]: 3.21 µM (inactive)
- GI50 [37]: 1.22 µM (inactive)
- GI50 [38]: 2 µM (inactive)
- GI50 [39]: 1.43 µM (inactive)
- GI50 [40]: 4.66 µM (inactive)
- GI50 [41]: 2.11 µM (inactive)
- GI50 [42]: > 10 µM (inactive)
- GI50 [43]: > 10 µM (inactive)
- GI50 [44]: 2.04 µM (inactive)
- GI50 [45]: 3.3 µM (inactive)
- GI50 [46]: > 10 µM (inactive)
- GI50 [47]: 1.65 µM (inactive)
- GI50 [48]: 1.7 µM (inactive)
- GI50 [49]: 1.21 µM (inactive)
- GI50 [50]: 5.77 µM (inactive)
- GI50 [51]: 1.44 µM (inactive)
- GI50 [52]: > 10 µM (inactive)
- GI50 [53]: 1.32 µM (inactive)
- GI50 [54]: 2.37 µM (inactive)
- GI50 [55]: 5.3 µM (inactive)
- GI50 [56]: 8.73 µM (inactive)
- GI50 [57]: > 10 µM (inactive)
- GI50 [58]: 7.55 µM (inactive)
- GI50 [59]: 0.493 µM (active)
- GI50 [60]: 9.75 µM (inactive)
- GI50 [61]: 1.32 µM (inactive)
- GI50 [62]: 1.45 µM (inactive)
- GI50 [63]: 4.17 µM (inactive)
- GI50 [64]: 1.83 µM (inactive)
- GI50 [65]: > 10 µM (inactive)
- GI50 [66]: 2.62 µM (inactive)

SMILES: C[C@@]12CCCC(=O)N1[C@@H](CO)C(c1ccccc1)O2 (stereo partly drawn)
- GI50 [1]: > 100 µM (inactive)
- GI50 [2]: > 100 µM (inactive)
- GI50 [3]: > 100 µM (inactive)
- GI50 [5]: > 100 µM (inactive)
- GI50 [6]: > 100 µM (inactive)
- GI50 [7]: > 100 µM (inactive)
- GI50 [8]: > 100 µM (inactive)
- GI50 [10]: > 100 µM (inactive)
- GI50 [11]: > 100 µM (inactive)
- GI50 [12]: > 100 µM (inactive)
- GI50 [13]: > 100 µM (inactive)
- GI50 [14]: > 100 µM (inactive)
- GI50 [67]: > 100 µM (inactive)
- GI50 [15]: > 100 µM (inactive)
- GI50 [17]: > 100 µM (inactive)
- GI50 [18]: > 100 µM
- GI50 [20]: > 100 µM (inactive)
- GI50 [21]: > 100 µM (inactive)
- GI50 [22]: > 100 µM (inactive)
- GI50 [23]: > 100 µM (inactive)
- GI50 [25]: > 100 µM (inactive)
- GI50 [26]: > 100 µM (inactive)
- GI50 [27]: > 100 µM (inactive)
- GI50 [29]: > 100 µM (inactive)
- GI50 [31]: > 100 µM (inactive)
- GI50 [33]: > 100 µM (inactive)
- GI50 [34]: > 100 µM (inactive)
- GI50 [35]: > 100 µM (inactive)
- GI50 [36]: > 100 µM (inactive)
- GI50 [37]: > 100 µM (inactive)
- GI50 [38]: > 100 µM (inactive)
- GI50 [39]: > 100 µM (inactive)
- GI50 [41]: > 100 µM (inactive)
- GI50 [44]: > 100 µM (inactive)
- GI50 [45]: > 100 µM (inactive)
- GI50 [47]: > 100 µM (inactive)
- GI50 [48]: > 100 µM (inactive)
- GI50 [49]: > 100 µM (inactive)
- GI50 [51]: > 100 µM (inactive)
- GI50 [54]: > 100 µM (inactive)
- GI50 [57]: > 100 µM (inactive)
- GI50 [58]: > 100 µM (inactive)
- GI50 [60]: > 100 µM (inactive)
- GI50 [62]: > 100 µM (inactive)
- GI50 [63]: > 100 µM (inactive)
- GI50 [64]: > 100 µM (inactive)
- GI50 [66]: > 100 µM (inactive)
